Here are results for one compound from patent US4118561A, “7-(Substituted)-7H-pyrrolo[3,2-f]quinazoline-1,3-diamines” (priority 1977, dated 1978).

This experiment has as its system Escherichia coli W-102. Briefly: In vivo antibacterial synergism (mouse), Escherichia coli W-102. More on the design: species or system Escherichia coli (infected mice, CD-1). The settings on record: mice, p.o.; for PD50 SM/Cpd. (compound part): 0 hours; for PD50 SM/Cpd. (compound part) / CD50 SM/Cpd. (compound part): 20160 min; for CD50 SM/Cpd. (compound part): 6 hours. The protocol:
The test agents are weighed, suspended in 0.5% aqueous carboxymethyl cellulose, homogenized (glass tissue grinder) and diluted according to the design of the experiment. Mice (male, 18±1 g., CD-1 strain) are pre-weighed, pooled, infected at random intraperitoneally with a 0.5 ml. standardized suspension (LD95 ±5%) of the bacterial organism in 5% gastric mucin and treated at random with single doses of the test agents either at the time of infection or six hours after infecting. The treated groups consist of ten mice per dosage level. Deaths are recorded daily for 14 days and the PD50 (mice are treated at time of infection) and CD50 (mice are treated six hours after infecting) values are calculated by the method of Reed and Muench [Amer. J. Hyg., 27, 493 (1938)].

Consider `N#Cc1ccc(Cn2ccc3c4c(N)nc(N)nc4ccc32)cc1` [Example 16, 7-[(4-cyanophenyl)methyl]-7H-pyrrolo[3,2-f]-quinazoline-1,3-diamine], for which the ED50 (Escherichia coli, W102, po, 336 h, treated 0 hours after infecting, read-out: PD50 (agent alone)) is greater than 800 mg/kg. The “PD50 SM/Cpd. (compound part)” value (with SM 3.13 mg. per kg.) is 67.8 mg. per kg, the “PD50 SM/Cpd. (compound part)” value (with SM 6.25 mg. per kg.) worked out at 53.1 mg. per kg, the “PD50 SM/Cpd. (compound part)” value (with SM 12.5 mg. per kg.) is on record as 15.6 mg. per kg and the “PD50 SM/Cpd. (compound part)” value (with SM 25.0 mg. per kg.) is listed as 15.9 mg. per kg. Also, the “CD50 SM/Cpd. (compound part)” value is listed as 50 mg. per kg (with SM 12.5 mg. per kg.), 89 mg. per kg (with SM 25 mg. per kg.) and 37 mg. per kg (with SM 50 mg. per kg.).
